The source of these data is PubChem BioAssay (NCI).

Experiment in all cases: inhibition of tumour cell growth, NCI panel, 48 h
Test [1] relates to BT-549 breast.
For test [2], the system named is CCRF-CEM leukemia.
In test [3] the test system is HCT-116 colon.
In test [4] the test system is HT29 colon.
Test [5] has as its system MALME-3M melanoma.
Test [6] concerns NCI-H23 lung.
The subject of test [7] is NCI/ADR-RES ovarian.
For test [8], the system named is OVCAR-5 ovarian.
In test [9] the test system is SN12C renal.
The test system of test [10] is SNB-19 CNS.

Structures are written as SMILES. Values joined by “and” are separate entries in the source; they are usually repeats but may differ in a detail not shown here. Equal values may be shown once.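 Growth conditions: 96-well plates. Treatment: test compound, 48 hours, 5 concentrations. Analysis: linear interpolation between bracketing concentrations; unreached endpoints set to highest concentration. GI50: concentration for 50% inhibition of growth. Definition used: TGI = concentration required for complete inhibition of growth.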

Take `COc1cccc2c1C(=O)c1c(O)c3c(c(O)c1C2=O)C[C@@](O)(C(=O)CO)C[C@@H]3OC1CC(N)CC(C)O1` (stereo partly specified): the GI50 in [1] is 106 nM; in [2] it was less than 12.5 nM; in test [3] it was 15.5 nM and 43.1 nM; in test [4], 29.6 nM; in test [5] it was 49.1 nM; in [6], 40.5 nM and 38.7 nM. Also, the GI50 in test [7] was 2750 nM; in test [8] it was 116 nM; in test [9], 23.2 nM; in [10], 39.1 nM and 41.3 nM. Moreover, the TGI was 460 nM and 215 nM in [1]; 374 nM and 159 nM in test [2]; 790 nM and 330 nM in test [3]; 1100 nM and 809 nM in test [4]; 256 nM and 110 nM in test [5]; 325 nM and 259 nM in test [6]. For the same compound, the TGI in test [7] is 28200 nM; in test [8], 775 nM and 799 nM; in [9] it was 1430 nM and 1070 nM; in test [10], 2310 nM and 3060 nM.

Take `CNCc1ccccc1-c1csc([C@@H](C)Nc2nc(C)nc3cc(OC)c(OC)cc23)c1`: the GI50 was 1760 nM in [1]; 2260 nM in test [2]; 1710 nM in test [3]; 1710 nM in test [4]; 1760 nM in test [5]; 2830 nM in test [6]. The GI50 was 2010 nM in [7], 3290 nM in test [8], 1480 nM in test [9] and 1840 nM in [10]. Besides, the TGI came to 3550 nM in test [1]; 5300 nM in [2]; 3410 nM in test [3]; 4330 nM in test [4]; 3280 nM in [5]; 15500 nM in test [6]. Moreover, the TGI was 4680 nM in [7], 13600 nM in [8], 5020 nM in test [9] and 6690 nM in test [10].

With `S=C(Nc1ccc(Cl)cc1)Nc1ccc(-c2nc3ccccc3s2)cc1`, the GI50 was 26300 nM in [1]; 15600 nM in test [2]; 13500 nM in [3]; 17200 nM in test [4]; 15600 nM in test [5]; 14100 nM in test [6]. Also, the GI50 in test [7] was 17500 nM; in test [8], 20800 nM; in test [9], 15400 nM; in [10] it was 19000 nM. The TGI in test [1] worked out at 61500 nM; in [2], 54800 nM; in test [3], 26300 nM; in test [4], 39200 nM; in [5], 46400 nM; in test [6], 27300 nM. Further, the TGI in test [7] was 36600 nM; in test [8] it was 44000 nM; in [9] it was 35000 nM; in test [10] it was 69600 nM.

Consider `CN1CCN(C2CCN(C(=O)Nc3cc(Oc4ccc(NC(=O)C5(C(=O)Nc6ccc(F)cc6)CC5)c(F)c4)ccn3)CC2)CC1`, for which the GI50 is 1020 nM in test [1]; 1260 nM in [2]; 1050 nM in [3]; 806 nM in test [4]; 703 nM in test [5]; 1230 nM in [6]. Further, the GI50 in [7] is greater than 8160 nM; in [8] it was 1580 nM; in test [9], 855 nM; in [10], 354 nM. Further, the TGI in test [1] was greater than 2710 nM; in test [2], greater than 5700 nM; in test [3], greater than 10000 nM; in test [4] it was greater than 4380 nM; in [5] it was 2250 nM; in [6], greater than 3420 nM. The TGI in test [7] was greater than 10000 nM; in [8], greater than 10000 nM; in [9], greater than 7820 nM; in test [10] it was greater than 10000 nM.

Take `COC(=O)C[C@](O)(CCCC(C)(C)O)C(=O)O[C@@H]1C(OC)=C[C@]23CCCN2CCc2cc4c(cc2[C@H]13)OCO4`: the GI50 was 28.8 nM in test [1]; 28.2 nM in test [2]; 134 nM and 15.3 nM in test [3]; 18.3 nM in [4]; 19.6 nM in test [5]; 24.6 nM in [6]. Moreover, the GI50 in [7] is 934 nM; in test [8], 48.9 nM; in test [9], 40.5 nM; in [10], 21.4 nM. Besides, the TGI is 268 nM and 63.5 nM in test [5]; 548 nM and 86 nM in [6]; 14600 nM in [7]; 2930 nM and 556 nM in test [8]; 666 nM and 526 nM in test [9]; 1290 nM and 1390 nM in test [10].

With `CCOC(=O)C1=CN(C)C=C(C(=O)OCC)C1c1cc(Br)c(OCC)c(OC)c1`, the GI50 in test [1] is greater than 100000 nM; in [2] it was greater than 100000 nM; in test [3], 25900 nM; in [4] it was 34500 nM; in test [5] it was greater than 100000 nM; in test [6] it was greater than 100000 nM. Moreover, the GI50 in test [7], in test [8], in [9] and in test [10] was greater than 100000 nM in each case. In addition, the TGI in test [1], in test [2], in test [3], in test [4], in [5] and in [6] was greater than 100000 nM in each case. Moreover, the TGI in test [7], in [8], in test [9] and in [10] was greater than 100000 nM in each case.
